From PubChem BioAssay AID330 (DTP/NCI, 2004)
Values joined by “and” are separate entries in the source; they are usually repeats but may differ in a detail not shown here. Identical values can stand only once. Toxic doses and inconclusive results are not listed. Rule for the calls: active = survival T/C of 150% or more; inactive = T/C below 125% in these data.

Test system: P388 leukemia ip, CD2F1 mice, survival T/C
Test: NCI In Vivo Anticancer Drug Screen. Data for tumor model P388 Leukemia (intraperitoneal) in CD2F1 (CDF1) mice
Settings: endpoint: median survival time, higher = longer survival
Method in brief: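 Mice carrying the transplanted tumor received test compound or vehicle. Survival was recorded in each group, and the value is the treated-group measurement divided by that of the vehicle-treated control group.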

[1] = dose: 50.0 mg/kg/injection, schedule: Q01DX005 (ip), vehicle: saline with Tween-80
[2] = dose: 100.0 mg/kg/injection, schedule: Q01DX005 (ip), vehicle: saline with Tween-80
[3] = dose: 50.0 mg/kg/injection, schedule: Q01DX009 (ip), vehicle: saline with Tween-80
[4] = dose: 100.0 mg/kg/injection, schedule: Q01DX009 (ip), vehicle: saline with Tween-80
[5] = dose: 200.0 mg/kg/injection, schedule: Q01DX009 (ip), vehicle: saline with Tween-80

Measured: T/C

CN1C(C)(C)CC2=C(c3ccccc3)c3ccccc3C2C1(C)C (centres undefined)
inactive: [1] 106 % of control | [2] 100 % of control | dose: 200.0 mg/kg/injection, schedule: Q01DX005 (ip), vehicle: saline with Tween-80 102 % of control

C[N+]1(CSc2ccccc2)CCCCC1
inactive: dose: 12.5 mg/kg/injection, schedule: Q01DX009 (ip), vehicle: saline with Tween-80 100 % of control | dose: 25.0 mg/kg/injection, schedule: Q01DX009 (ip), vehicle: saline with Tween-80 98 % of control

O=C1c2ccccc2SCC12OC2c1ccc(Cl)cc1 (centres undefined)
inactive: dose: 100.0 mg/kg/injection, schedule: Q04DX002 (ip), vehicle: saline with Tween-80 95 % of control | dose: 200.0 mg/kg/injection, schedule: Q04DX002 (ip), vehicle: saline with Tween-80 90 % of control

CCOC(=O)C(C)(NC(=O)CN)C1CC1 (centres undefined)
inactive: dose: 50.0 mg/kg/injection, schedule: Q01DX009 (ip), vehicle: saline 90 % of control | dose: 100.0 mg/kg/injection, schedule: Q01DX009 (ip), vehicle: saline 94 % of control | dose: 200.0 mg/kg/injection, schedule: Q01DX009 (ip), vehicle: saline 97 % of control

C(CCc1nn[nH]n1)CCC1CCCCC1
inactive: [1] 96 % of control | [2] 107 % of control

Cc1cc(C)nc(NS(=O)(=O)c2ccc(Nc3c4ccccc4nc4c([N+](=O)[O-])cccc34)cc2)n1
inactive: dose: 3.75 mg/kg/injection, schedule: Q01DX005 (ip), vehicle: saline with Tween-80 100 % of control | dose: 7.5 mg/kg/injection, schedule: Q01DX005 (ip), vehicle: saline with Tween-80 100 % of control | dose: 15.0 mg/kg/injection, schedule: Q01DX005 (ip), vehicle: saline with Tween-80 97 % of control

CC(C)C12OC1C1OC13C1(C)CCC(O)CC1CC1OC13C2O (centres undefined)
inactive: dose: 0.03 mg/kg/injection, schedule: Q01DX009 (ip), vehicle: saline + alcohol 103 % of control and 101 % of control and 111 % of control | dose: 0.06 mg/kg/injection, schedule: Q01DX009 (ip), vehicle: saline + alcohol 102 % of control and 111 % of control | dose: 0.12 mg/kg/injection, schedule: Q01DX009 (ip), vehicle: saline + alcohol 115 % of control and 109 % of control and 107 % of control | dose: 0.25 mg/kg/injection, schedule: Q01DX009 (ip), vehicle: saline + alcohol 111 % of control and 106 % of control and 117 % of control | dose: 0.5 mg/kg/injection, schedule: Q01DX009 (ip), vehicle: saline + alcohol 115 % of control and 109 % of control | dose: 1.0 mg/kg/injection, schedule: Q01DX009 (ip), vehicle: saline + alcohol 109 % of control and 115 % of control | dose: 2.0 mg/kg/injection, schedule: Q01DX009 (ip), vehicle: saline + alcohol 111 % of control and 103 % of control and 106 % of control | dose: 4.0 mg/kg/injection, schedule: Q01DX009 (ip), vehicle: saline + alcohol 103 % of control and 100 % of control | dose: 8.0 mg/kg/injection, schedule: Q01DX009 (ip), vehicle: saline + alcohol 103 % of control and 100 % of control | dose: 16.0 mg/kg/injection, schedule: Q01DX009 (ip), vehicle: saline + alcohol 102 % of control and 103 % of control

CC1(C)CC2CCCCN2CO1 (centres undefined)
inactive: dose: 50.0 mg/kg/injection, schedule: Q01DX005 (ip), vehicle: saline 112 % of control | dose: 100.0 mg/kg/injection, schedule: Q01DX005 (ip), vehicle: saline 108 % of control

CN1c2ccccc2SC12C(=O)N(c1ccccc1)C(=O)N2c1ccccc1 (centres undefined)
inactive: [3] 103 % of control | [4] 100 % of control | [5] 103 % of control

Nc1nc2ccccc2[nH]1
inactive: dose: 20.0 mg/kg/injection, schedule: Q04DX003 (ip), vehicle: other 101 % of control | dose: 20.0 mg/kg/injection, schedule: Q04DX003 (oral), vehicle: other 102 % of control | dose: 40.0 mg/kg/injection, schedule: Q04DX003 (ip), vehicle: other 100 % of control | dose: 40.0 mg/kg/injection, schedule: Q04DX003 (oral), vehicle: other 100 % of control | dose: 80.0 mg/kg/injection, schedule: Q04DX003 (ip), vehicle: other 101 % of control | dose: 80.0 mg/kg/injection, schedule: Q04DX003 (oral), vehicle: other 102 % of control | dose: 160.0 mg/kg/injection, schedule: Q04DX003 (ip), vehicle: other 99 % of control | dose: 160.0 mg/kg/injection, schedule: Q04DX003 (oral), vehicle: other 102 % of control

CCOC(=O)OCC(=O)[C@@]1(O)CC[C@H]2[C@@H]3CCC4=CC(=O)CC[C@]4(C)[C@H]3[C@@H](O)C[C@@]21C
inactive: [3] 104 % of control | dose: 50.0 mg/kg/injection, schedule: Q04DX003 (ip), vehicle: saline with Tween-80 100 % of control | [4] 100 % of control | dose: 100.0 mg/kg/injection, schedule: Q04DX003 (ip), vehicle: saline with Tween-80 100 % of control | [5] 90 % of control | dose: 200.0 mg/kg/injection, schedule: Q04DX003 (ip), vehicle: saline with Tween-80 100 % of control
